Where only a bound is given, the exact number is not on record here.

The target in one assay is DCN1-UBC12 interaction (Homo sapiens (Human), UniProt Q96GG9). The assay can be described thus: biochemical. It is filed as binding. To be noted: Table 4, commercial compounds; read-out: TR-FRET IC50. In general terms: TR-FRET usually uses a lanthanide donor and a delayed reading to cut background.
DCN1-UBC12 interaction, sequence (Q96GG9 60-248 limits assumed): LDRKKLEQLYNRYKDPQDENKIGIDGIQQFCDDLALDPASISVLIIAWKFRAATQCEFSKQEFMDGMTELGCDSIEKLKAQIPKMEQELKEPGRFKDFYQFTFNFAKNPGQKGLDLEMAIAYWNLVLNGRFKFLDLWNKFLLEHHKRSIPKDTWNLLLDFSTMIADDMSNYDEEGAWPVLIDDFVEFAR
As usually defined, the IC50 is the concentration that gives 50% inhibition. On to `COc1ccc(C(=O)NC2CCN(C(=O)c3ccc(OC)cc3)CC2)cc1` [C71], for which the IC50 was over 92.2 µM.
On the same count and under the same terms, to `O=C(Nc1ccc(F)c(Cl)c1)C1CCN(C(=O)c2ccc(F)cc2)CC1` [C18] belongs over 67.6 µM; to `CCOc1ccc(NC(=O)C2CCN(C(=O)c3ccccc3Cl)CC2)cc1` [C48], over 67.6 µM.
Regarding `O=C(Nc1ccc(F)c(Cl)c1)C1CCN(C(=O)c2ccc(Br)cc2)CC1` [C70], the IC50 was over 83.8 µM.
Regarding `O=C(Nc1ccc(I)cc1)C1CCN(C(=O)c2ccco2)CC1` [C30], the IC50 was over 67.6 µM.
Still for that read-out and setting: the result for `CC(=O)Nc1cccc(NC(=O)C2CCN(C(=O)c3ccco3)CC2)c1` [C39] reads over 67.6 µM; that for `Cc1cc(NC(=O)C2CCN(C(=O)c3ccco3)CC2)ccc1Br` [C38], over 67.6 µM; that for `Cc1cccc(NC(=O)C2CCN(C(=O)c3cccc4ccccc34)CC2)c1` [C63], over 67.6 µM.
Same read-out and setting: to `COc1ccc(NC(=O)C2CCN(C(=O)N3CCOc4ccccc43)CC2)cc1` [C53] belongs over 67.6 µM.

Still in this assay, the particulars now being: Table 6, commercial compounds; read-out: TR-FRET IC50.
In the case of `CCN(CC)CCN(CC)C(=O)c1cnn(-c2ncc(C)c(-c3cccs3)n2)c1C1CC1` [E18], the IC50 amounted to 38.1 µM.
Still for that read-out and setting: to `CCN(CC)C(=O)c1cnn(-c2nccc(-c3cccs3)n2)c1C` [E25] belongs 63 µM.
Same read-out and setting: the result for `CCN(CC)CCN(C)C(=O)c1cnn(-c2ncc(C)c(-c3cccs3)n2)c1COC` [E38] reads over 67.6 µM; that for `Cc1cnc(-n2ncc(C(=O)N3CCN(C(C)C)CC3)c2C2CC2)nc1-c1cccs1` [E40], over 67.6 µM; that for `CCCN1CCN(C(=O)c2cnn(-c3nccc(-c4cccs4)n3)c2COC)CC1` [E27], over 16.7 µM.

Staying with this assay, now noted: Table 7, commercial compounds; read-out: TR-FRET IC50.
Turning to `Cc1cccc(C(=O)NC2C(=O)Nc3c(c(C)nn3C)C2c2cccc(C)c2)c1` (centres unmarked) [F32], the IC50 is over 67.6 µM.
Take `Cc1cccc(C(=O)NC2C(=O)Nc3c(c(C)nn3C)C2c2cccc(F)c2)c1` (centres unmarked) [F15]: the IC50 was over 67.6 µM.
On the same count and under the same terms, the result for `CCCOc1cc(C2c3c(C)nn(C)c3NC(=O)C2NC(=O)c2ccc(Cl)cc2)ccc1OC` (centres unmarked) [F9] reads over 67.6 µM; that for `Cc1cccc(C2c3c(C)nn(C)c3NC(=O)C2NC(=O)c2ccccc2)c1` (centres unmarked) [F33], over 80.3 µM.

Still in this assay, the particulars now being: read-out: TR-FRET IC50.
With `Cn1nccc1-c1cccc(NC(=O)NC2CCN(Cc3ccccc3)CC2)c1` [A263, 1-(1-Benzylpiperidin-4-yl)-3-(3-(1-Methyl-1H-Pyrazol-5-yl)Phenyl)Urea], the IC50 is over 64.6 µM.
Still for that read-out and setting: the result for `CCCC(C)N1CCC(N(Cc2ccccc2)C(=O)Nc2cc(Cl)ccc2Cl)CC1` (centres unmarked) [A152] reads 6.27 µM; that for `O=C(Nc1cccc(-n2cccc2)c1)NC1CCN(Cc2ccccc2)CC1` [A282, 1-(3-(1H-Pyrrol-1-yl)Phenyl)-3-(1-Benzylpiperidin-4-yl)Urea], over 71.3 µM; that for `CCN1CCC(N(Cc2ccc(F)cc2)C(=O)Nc2ccccc2Cl)CC1` [B97], over 67.6 µM.
On to “1-Benzyl-1-(1-(3,3-Dimethylbutyl)Piperidin-4-yl)-3-(3-(Trifluoromethyl)Phenyl)Urea [A298]”, for which the half-inhibitory concentration (IC50) is over 85 µM.
Still for that read-out and setting: to `O=C(Nc1cc(F)cc(C(F)(F)F)c1)N(Cc1ccccc1)C1CCN(Cc2ccc[nH]2)CC1` [A215] belongs over 23.4 µM; to `COc1ccccc1NC(=O)N(Cc1ccco1)C1CCN(C(C)=O)CC1` [B68], over 67.6 µM.
For `FC(F)(F)c1cccc(CN2CCN(Cc3nc4ccccc4[nH]3)CC2)c1` [B28], the 50% inhibitory concentration (IC50) was over 46.3 µM.
Still for that read-out and setting: to `O=C(Nc1cc(F)cc(C(F)(F)F)c1)N(Cc1ccccc1)C1CCN(Cc2ccc(Cc3ccccc3)cc2)CC1` [A211] belongs over 21.8 µM; to `CCCC(C)N1CCC(N(Cc2ccccc2)C(=O)Nc2cc(C)cc(C)c2)CC1` (centres unmarked) [A98], 1.38 µM.
For the molecule `CC1CN(Cc2ccccc2)CCC1N(C)C(=O)NC1C(=O)N(c2ccccc2)N(C)C1C` (centres unmarked) [B27], the IC50 is over 28.1 µM.
The same measure, in the same setting: the result for `COc1ccc(C(=O)N2CCC(NCc3ccc(C)cc3)CC2)cc1` [A194] reads over 10.3 µM.
Same read-out and setting: to `CCCC(C)N1CCC(N(Cc2ccccc2)C(=O)Nc2ccc(F)cc2Br)CC1` (centres unmarked) [A302] belongs over 86.9 µM; to `CCCC(C)N1CCC(N(Cc2ccccc2)C(=O)Nc2ccc(CC#N)cc2)CC1` (centres unmarked) [A176], 13.7 µM.
Still for that read-out and setting: the result for `Cc1cccc(NC(=O)NC2CCN(C(=O)c3ccccc3)CC2)c1` [B111] reads over 73.2 µM.
As to `CCCCCCc1ccc(NC(=O)N(Cc2ccccc2)C2CCN(C(C)CCC)CC2)cc1` (centres unmarked) [A19], the IC50 was found to be 0.116 µM.
The same measure, in the same setting: the result for `O=C(Nc1cc(F)cc(C(F)(F)F)c1)N(Cc1ccccc1)C1CCN(Cc2nc3ccccc3s2)CC1` [A222] reads over 25.2 µM.
With `CCCC(C)N1CCC(N(Cc2ccc3c(c2)OCO3)C(=O)Nc2ccc(F)c(C(F)(F)F)c2)CC1` (centres unmarked) [A61], the IC50 was determined as 0.371 µM.
Regarding `CCCC(C)N1CCC(N(Cc2ccccc2)C(=O)Nc2ccc(F)c(-c3nc4ccccc4o3)c2)CC1` (centres unmarked) [A268], the 50% inhibitory concentration (IC50) was over 67.1 µM.
The same measure, in the same setting: to `CN(C)c1ncncc1NC(=O)NC1CCN(Cc2ccc(F)cc2)CC1` [B109] belongs over 72.8 µM; to `O=C(Nc1ccc2c(c1)OC(F)(F)O2)NC1CCN(C(=O)c2ccccc2)CC1` [B114], over 74.1 µM.
As to `CC(=O)N1CCC(N(Cc2ccco2)C(=O)Nc2cccc(C)c2)CC1` [B72], the IC50 is over 67.6 µM.
Still for that read-out and setting: the result for `CCCC(C)N1CCC(N(Cc2ccccc2)C(=O)Nc2ccc(Cl)c(F)c2)CC1` (centres unmarked) [A49] reads 0.265 µM.
The same measure, in the same setting: to `CCCC(C)N1CCC(N(Cc2ccccc2)C(=O)Nc2cccc(-c3ccccc3)c2)CC1` (centres unmarked) [A129] belongs 2.67 µM; to `CCCC(C)N1CCC(N(Cc2ccccc2)C(=O)Nc2ccc(C)cc2F)CC1` (centres unmarked) [A157], 7.11 µM; to `Cc1ccc(CN(C(=O)Nc2ccccc2F)C2CCN(Cc3ccccc3)CC2)o1` [B94], over 67.6 µM.
On the same count and under the same terms, the result for `O=C(Nc1cccc(I)c1)NC1CCN(Cc2ccccc2)CC1` [B98] reads over 67.6 µM; that for `COc1cccc(NC(=O)NC2CCN(Cc3ccccc3)CC2)c1` [B61], over 67.6 µM; that for `O=C(c1cccc(Br)c1)N1CCC(c2nc3cc(Cl)ccc3s2)CC1` [D18], over 60.8 µM.
For `Cc1ccc(NC(=O)NC2CCN(Cc3ccccc3)CC2)cc1C` [B63], the IC50 was over 67.6 µM.
Still for that read-out and setting: the result for `CCc1ccccc1NC(=O)NC1CCN(Cc2ccccc2)CC1` [B53] reads over 67.6 µM; that for `CCCC(C)N1CCC(N(Cc2ccccc2)C(=O)Nc2cccc(S(F)(F)(F)(F)F)c2)CC1` (centres unmarked) [A25], 0.155 µM; that for `CCCC(C)N1CCC(N(Cc2ccccc2)C(=O)Nc2cc(Cl)ccc2F)CC1` (centres unmarked) [A159], 7.72 µM.
Still for that read-out and setting: to `CCCC(C)N1CCC(N(Cc2ccccc2)C(=O)Nc2ccc(Br)cc2)CC1` (centres unmarked) [A5] belongs 0.0559 µM; to `CCCC(C)N1CCC(N(Cc2ccccc2)C(=O)Nc2ccccc2Sc2ccccc2)CC1` (centres unmarked) [A303], over 89.9 µM.
Still for that read-out and setting: to `C#CCCCN1CCC(N(Cc2ccccc2NC(=O)CCl)C(=O)Nc2cccc(C(F)(F)F)c2)CC1` [A253] belongs over 6.89 µM; to `CCCC(C)N1CCC(N(Cc2ccccc2)C(=O)Nc2cc(F)ccc2Cl)CC1` (centres unmarked) [A169], 11 µM.
For the molecule `O=C(Nc1cccc(C(F)(F)F)c1)N1CCN(C(c2ccccc2)c2ccccc2)CC1` [B40], the IC50 was over 62.8 µM.
With `CCC(CC)N1CCC(N(Cc2ccccc2)C(=O)Nc2cc(F)cc(C(F)(F)F)c2)CC1` [A120], the IC50 came out at 0.616 µM.
On the same count and under the same terms, the result for `O=C(Nc1cccc(C(F)(F)F)c1)NC1CCN(Cc2ccc(F)cc2)CC1` [A172, 1-(1-(4-Fluorobenzyl)Piperidin-4-yl)-3-(3-(Trifluoromethyl)Phenyl)Urea] reads 12.9 µM; that for `CCCCN1CCC(N(Cc2ccccc2)C(=O)Nc2ccc(C)s2)CC1` [A182], 21.1 µM.
In the case of `CCCC(C)N1CCC(N(Cc2ccccc2)C(=O)Nc2cc(Cl)c(O)c(Cl)c2)CC1` (centres unmarked) [A260], the IC50 was over 62.5 µM.
The same measure, in the same setting: to `O=C(Nc1cc(F)cc(C(F)(F)F)c1)N(Cc1ccccc1)C1CCN(C/C=C/c2ccccc2)CC1` [A143] belongs 4.27 µM; to `COCCn1ccc(NC(=O)NC2CCN(Cc3ccccc3)CC2)n1` [B35], over 55.9 µM.
Regarding `CN1CC(NC(=O)NC2CCN(Cc3ccccc3)CC2)c2ccccc2C1=O` (centres unmarked) [B17], the IC50 came out at 55.6 µM.
Take `CCCC(C)N1CCC(N(Cc2ccccc2)C(=O)Nc2cccc(N3CCOCC3)c2)CC1` (centres unmarked) [A297]: the IC50 was over 83.6 µM.
On the same count and under the same terms, to `CCCC(C)N1CCC(N(Cc2ccccc2)C(=O)Nc2cccc(F)c2C)CC1` (centres unmarked) [A151] belongs 5.66 µM; to `COc1ccc(CN(C(=O)Nc2ccc(C)cc2)C2CCN(C(C)=O)CC2)cc1` [B83], over 67.6 µM.
Still for that read-out and setting: the result for `CCCC(C)N1CCC(N(Cc2ccccc2)C(=O)Nc2ccc(C)cc2Cl)CC1` (centres unmarked) [A175] reads 13.6 µM; that for `COc1ccc(NC(=O)N(Cc2ccco2)C2CCN(C(C)=O)CC2)cc1` [B70], over 67.6 µM.
For the molecule `CCCC(C)N1CCC(N(Cc2ccccc2)C(=O)Nc2ccccc2F)CC1` (centres unmarked) [A295], the IC50 is over 81.1 µM.
Take `CCCCN1CCC(N(Cc2ccc3c(c2)OCO3)C(=O)Nc2ccc(F)c(C(F)(F)F)c2)CC1` [A114]: the IC50 came out at 2.35 µM.
On to `CCCCN1CCC(N(Cc2ccccc2)C(=O)Nc2cncc(C(F)(F)F)c2)CC1` [A262], for which the IC50 is over 63.4 µM.
Still for that read-out and setting: the result for `Cn1ccc2cc(CN3CCC(N(Cc4ccccc4)C(=O)Nc4cc(F)cc(C(F)(F)F)c4)CC3)ccc21` [A205] reads over 20.8 µM.
The same measure, in the same setting: the result for `CCCC(C)N1CCC(N(Cc2ccccc2)C(=O)Nc2cccc(OC(F)(F)F)c2)CC1` (centres unmarked) [A12] reads 0.0827 µM; that for `CCN1CCC(N(Cc2ccco2)C(=O)Nc2ccc(F)c(Cl)c2)CC1` [B104], over 70.9 µM; that for `COc1cccc(C(=O)N2CCC(c3nc4ccccc4s3)CC2)c1` [D14], 66.4 µM.
Same read-out and setting: to `COc1ccc(C)cc1NC(=O)N(Cc1ccc(C)o1)C1CCN(Cc2ccccc2)CC1` [B95] belongs over 67.6 µM; to `CCCC(C)N1CCC(N(Cc2ccccc2)C(=O)Nc2ccc(OC(F)(F)F)cc2)CC1` (centres unmarked) [A32], 0.191 µM.
Turning to `CCCCN1CCC(N(Cc2ccccc2)C(=O)Nc2cccc(C(F)(F)F)c2F)CC1` [A70], the IC50 worked out at 0.583 µM.
Same read-out and setting: the result for `Cc1cc(C)cc(C(=O)N2CCC(c3nc4ccccc4s3)CC2)c1` [D10] reads 25.4 µM.
The same measure, in the same setting: the result for `Cc1ccccc1CN1CCC(NC(=O)Nc2cccc(C(F)(F)F)c2)CC1` [A135] reads 3.35 µM.

Source of the values: patent US11116757B2 (priority 2015, dated 2021).
